Where two headings read alike, the source gives them in different places.
Legend:
Format in all cases: in vivo
[1] = molecular target: T1, β2-receptors of the smooth muscles (Felis catus, UniProt Q9TST5); test: β-blockade of isoprenaline peripheral vasodilator response (peripheral vascular resistance) in reserpinized cat; settings: iv, 50% blockade of isoprenaline (usually 0.1 μg/kg) response
T1 construct: from tissue; host or cells: vascular bed of the blood-perfused leg of the anesthetized cat, paw excluded (in vivo)
T1 sequence (Q9TST5 whole entry, the tested form may be a part): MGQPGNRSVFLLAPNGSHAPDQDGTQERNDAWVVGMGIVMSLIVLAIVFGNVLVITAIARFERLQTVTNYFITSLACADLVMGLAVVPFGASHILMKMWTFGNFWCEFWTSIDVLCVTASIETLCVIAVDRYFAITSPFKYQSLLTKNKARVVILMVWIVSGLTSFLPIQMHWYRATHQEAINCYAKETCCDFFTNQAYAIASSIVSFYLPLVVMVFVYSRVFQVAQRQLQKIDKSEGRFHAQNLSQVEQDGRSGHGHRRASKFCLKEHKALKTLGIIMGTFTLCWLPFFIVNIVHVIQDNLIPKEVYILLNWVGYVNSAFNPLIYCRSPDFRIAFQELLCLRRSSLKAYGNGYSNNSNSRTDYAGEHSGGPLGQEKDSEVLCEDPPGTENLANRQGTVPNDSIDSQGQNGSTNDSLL
Experimental: (§1) Compounds prepared according to the examples were evaluated for intrinsic activity and blocking effect on heart rate and peripheral vasodilator response to isoprenaline in the cat. Alprenolol was used as a reference source.
(§2) Cats weighing between 1.8 and 2.8 kg were anesthetized with 39 mg/kg pentobarbital sodium, intraperitoneally. The cat had been pre-treated with reserpine, 5 mg/kg intramuscular, about 18 hours before the experiment. Bilateral vagotomy was performed before the start of the experiment.
(§3) The heart rate was recorded on an Offner cardiotachometer triggered by the EKG-complex. Mean arterial blood pressure was recorded from a carotid artery. The peripheral resistance was measured in one of the legs of the cat in the following way: The femoral artery was opened in the inguinal region and the leg was perfused by blood delivered through a sigma motor pump at constant rate. The flow resistance (the pressure) was recorded via pressure transducer connected to the catheter distally to the pump. The paw was excluded from the circulation by a tight ligature. Intravenously injected isoprenaline increased the heart rate and reduced the perfusion pressure. An isoprenaline dose giving 70-80% of the maximal chronotropic response was determined. This dose (usually 0.1 μg/kg) was then repeated with 20-minute intervals. Ten minutes before each isoprenaline injection, the tested substances were administered intravenously for two minutes, starting with a dose of 0.01 mg/kg and increasing each subsequent dose fourfold. The intrinsic effects of the test substances were determined. The dose producing 50% blockade of the isoprenaline responses was evaluated from the plotted log dose percent blockade diagrams.

β-receptors of the heart [2] = molecular target: T2, β-receptors of the heart (Felis catus, UniProt Q9TST6); test: Intrinsic activity on heart rate in reserpinized cat; settings: iv, anesthetized, vagotomized, i.v., read-out: Intrinsic activity % of maximal isoprenaline heart rate
T2 construct: from tissue; host or cells: heart of the anesthetized, reserpine-pretreated, vagotomized cat (in vivo)
T2 sequence (Q9TST6 whole entry): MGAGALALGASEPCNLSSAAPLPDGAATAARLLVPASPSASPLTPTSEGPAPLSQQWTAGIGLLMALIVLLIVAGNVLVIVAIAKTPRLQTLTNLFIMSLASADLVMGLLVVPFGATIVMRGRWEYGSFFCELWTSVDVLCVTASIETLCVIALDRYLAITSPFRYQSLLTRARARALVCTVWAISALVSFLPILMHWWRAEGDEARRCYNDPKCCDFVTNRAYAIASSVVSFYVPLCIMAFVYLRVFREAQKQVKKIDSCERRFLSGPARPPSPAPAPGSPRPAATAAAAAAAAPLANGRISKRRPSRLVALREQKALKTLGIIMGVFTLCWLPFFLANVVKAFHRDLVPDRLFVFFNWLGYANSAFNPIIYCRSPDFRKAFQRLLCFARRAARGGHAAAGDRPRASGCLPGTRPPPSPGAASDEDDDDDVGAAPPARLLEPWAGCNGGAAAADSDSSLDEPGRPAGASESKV
Experimental: as §1, §2, §3

β-receptors of the heart [3] = molecular target: T2, β-receptors of the heart; test: β-blockade of isoprenaline heart rate response in reserpinized cat; settings: iv, read-out: β-blockade heart rate ED50
Experimental: as §1, §2, §3

[4] = reserpinized cat, i.v., 50% blockade of isoprenaline (usually 0.1 μg/kg) response

Structure (SMILES)	ED50 [1] [mg/kg]	Emax (β-receptors of the heart [2]) [%]	ED50 (β-receptors of the heart [3]; [4]) [mg/kg]	ED50 (β-receptors of the heart [3]; cat) [mg/kg]
COCCc1ccc(OCC(O)CNC(C)C)c(Br)c1 (stereo not drawn) [Example 1, 1-isopropylamino-3-[2'-bromo-4'-(β-methoxyethyl)-phenoxy]-propanol-2]	1	0	0.03	
COCCc1ccc(OCC(O)CNC(C)C)c(Cl)c1 (stereo not drawn) [Example 2, 1-isopropylamino-3-[2'-chloro-4'-(2-methoxyethyl)phenoxy]-propanol-2]	3	0	0.1	
COCCc1ccc(OCC(O)CNC(C)(C)C)c(Cl)c1 (stereo not drawn) [Example 3]	1	0	0.03	
COCCc1ccc(OCC(O)CNC(C)C)c(COC)c1 (stereo not drawn) [Example 4, 1-isopropylamino-3-[2'-methoxymethyl-4'-(2-methoxyethyl)phenoxy]-propanol-2]	5	5	0.2	
COCCCc1ccc(OCC(O)CNC(C)C)c(Cl)c1 (stereo not drawn) [Example 5, 1-isopropylamino-3-[2'-chloro-4'-(3-methoxy-n-propyl)phenoxy]-propanol-2]	2	0	0.3	
COCCCc1ccc(OCC(O)CNC(C)C)c(Br)c1 (stereo not drawn) [Example 6, 1-isopropylamino-3-[2'-bromo-4'-(3-methoxypropyl)phenoxy]-propanol-2]	1.5	0		0.4
COCc1ccc(OCC(O)CNC(C)C)c(OC)c1 (stereo not drawn) [Example 7, 1-isopropyalmino-3-[2'-methoxymethylphenoxy]-propanol-2]	3	1	0.6	
C=CCc1cc(CCOC)ccc1OCC(O)CNC(C)C (stereo not drawn) [Example 8, 1-isopropylamino-3-[2'-allyl-4'-(2-methoxyethyl)-phenoxyl]propanol-2]	0.8	0	0.1	
CCCc1cc(CCOC)ccc1OCC(O)CNC(C)C (stereo not drawn) [Example 9, 1-isopropylamino-3-[2'-propyl-4'-(2-methoxyethyl)phenoxy]-propanol-2]	0.5	0	0.1	
C=CCc1cc(CCCOC)ccc1OCC(O)CNC(C)C (stereo not drawn) [Example 10, 1-isopropylamino-3-[2'-allyl-4'-(3-methoxy-n-propyl)phenoxy]-propanol-2]	1	0	0.3	
CSCCc1ccc(OCC(O)CNC(C)C)c(F)c1 (stereo not drawn) [Example 11, 1-isopropylamino-3-[2'-fluoro-4'-(2-methylmercaptoethyl)phenoxy]-propanol-2xHCl]	1	0	0.2	
COCCCc1ccc(OCC(O)CNC(C)C)c(OC)c1 (stereo not drawn) [Example 12, 1-isopropylamino-3-[2'-methoxy-4'-(3-methoxy-n-propyl)phenoxy]-propanol-2xHCl]	5	0		0.4
COCCc1ccc(OCC(O)CNC(C)C)c(F)c1 (stereo not drawn) [Example 13, 1-isopropylamino-3-[2'-fluoro-4'-(2-methoxyethyl)phenoxy]-propanol-2xHCl]	2.7	0	0.05	

— patent US4145442A, “Phenoxy-hydroxypropylamines, their preparation, and method and pharmaceutical preparations for treating cardiovascular diseases” (priority 1972, dated 1979)
